# Test results: ChEMBL document CHEMBL1127372, “The discovery and structure-activity relationships of 1,2,3,6-tetrahydro-4-phenyl-1-[(arylcyclohexenyl)alkyl]pyridines. Dopamine autoreceptor agonists and potential antipsychotic agents” (J Med Chem, 1994)
# Active and inactive are the calls of the source. No cut-off for these calls is given here.
# Assays:
# D(2) dopamine receptor [1] = biological target: T1, D(2) dopamine receptor (Rattus norvegicus, UniProt P61169); experiment: In vitro inhibition of [3H]spiperone binding to Dopamine D2 receptor in rat striatum.; type: tissue-based
# T1 sequence (P61169 whole entry): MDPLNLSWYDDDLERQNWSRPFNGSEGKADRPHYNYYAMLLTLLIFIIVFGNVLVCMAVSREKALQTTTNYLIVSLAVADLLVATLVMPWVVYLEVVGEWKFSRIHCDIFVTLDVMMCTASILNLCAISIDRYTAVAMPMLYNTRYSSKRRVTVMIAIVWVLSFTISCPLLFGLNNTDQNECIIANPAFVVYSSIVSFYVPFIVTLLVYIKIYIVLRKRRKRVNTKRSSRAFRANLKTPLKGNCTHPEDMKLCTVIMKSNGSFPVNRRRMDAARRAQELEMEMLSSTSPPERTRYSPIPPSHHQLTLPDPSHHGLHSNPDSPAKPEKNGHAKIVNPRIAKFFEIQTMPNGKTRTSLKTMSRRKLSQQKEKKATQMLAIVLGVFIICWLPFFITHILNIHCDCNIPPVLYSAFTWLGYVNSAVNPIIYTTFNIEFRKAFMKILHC
# Mus musculus [2] = experiment: Tested for inhibition of mouse exploratory locomotory activity (LMA); value ranges from 0.8-1.6 mg/Kg; type: functional
# Rattus norvegicus [3] = experiment: Effect on striatal DOPA synthesis at 10 mg/kg dose after GBL intraperitoneal dose of 750 mg/kg in rat corpus striatum; type: functional
# Mus musculus [4] = experiment: Tested for inhibition of mouse exploratory locomotory activity (LMA); value ranges from […]-[…] mg/Kg; type: functional
# Rattus norvegicus [5] = organism: Rattus norvegicus; experiment: Tested for inhibition of rat exploratory locomotory activity (LMA); type: functional
# D(1A) dopamine receptor = D(1A) dopamine receptor (Rattus norvegicus, UniProt P18901); experiment: Tested for binding affinity towards rat striatal dopamine receptor D1 using [3H]-SCH- 23390 as radioligand
# D(1A) dopamine receptor, sequence (P18901 whole entry): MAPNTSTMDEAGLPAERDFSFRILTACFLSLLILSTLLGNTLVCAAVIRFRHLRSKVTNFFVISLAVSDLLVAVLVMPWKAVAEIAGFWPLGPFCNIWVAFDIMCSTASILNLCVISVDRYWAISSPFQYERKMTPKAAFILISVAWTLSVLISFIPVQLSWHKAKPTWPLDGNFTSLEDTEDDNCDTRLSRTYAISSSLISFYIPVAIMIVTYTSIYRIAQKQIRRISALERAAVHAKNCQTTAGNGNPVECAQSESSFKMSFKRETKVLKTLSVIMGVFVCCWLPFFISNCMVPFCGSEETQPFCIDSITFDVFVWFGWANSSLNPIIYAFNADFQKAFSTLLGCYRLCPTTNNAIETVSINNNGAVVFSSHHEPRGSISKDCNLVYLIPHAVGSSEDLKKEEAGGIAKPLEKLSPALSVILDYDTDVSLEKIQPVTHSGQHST
# D(4) dopamine receptor = biological target: T2, D(4) dopamine receptor (Homo sapiens, UniProt P21917); experiment: Tested for binding affinity towards human Dopamine receptor D4.2 using [3H]spiperone as radioligand
# T2 sequence (P21917 whole entry): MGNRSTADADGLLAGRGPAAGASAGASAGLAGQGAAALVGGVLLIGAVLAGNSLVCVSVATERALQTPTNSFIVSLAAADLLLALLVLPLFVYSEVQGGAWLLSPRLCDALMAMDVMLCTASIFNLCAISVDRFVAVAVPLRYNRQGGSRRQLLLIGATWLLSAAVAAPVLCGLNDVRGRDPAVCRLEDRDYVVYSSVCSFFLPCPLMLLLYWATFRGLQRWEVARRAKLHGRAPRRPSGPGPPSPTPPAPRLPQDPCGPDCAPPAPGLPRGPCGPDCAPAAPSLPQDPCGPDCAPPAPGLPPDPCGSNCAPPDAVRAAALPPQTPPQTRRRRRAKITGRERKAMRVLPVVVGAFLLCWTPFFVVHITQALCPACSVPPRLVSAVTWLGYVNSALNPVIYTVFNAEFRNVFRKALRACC
# D(2) dopamine receptor [6] = biological target: T1, D(2) dopamine receptor; experiment: Tested for binding affinity towards rat striatal D2 receptor using [3H]NPA as radioligand
# Mus musculus [7] = experiment: Tested for the inhibition of locomotor activity in mice intraperitoneally; value ranges from 0.9-1.8 mg/Kg; type: functional; conditions: ip
# Rattus norvegicus [8] = experiment: Compound was tested for the decrease of DA neuron firing rate in rats at 2.5 mg/Kg ip dose; type: functional
# Rattus norvegicus [9] = experiment: Tested for inhibition of rat exploratory locomotory activity (LMA); value ranges from […]-[…] mg/Kg; type: functional
# Rattus norvegicus [10] = experiment: Tested for the inhibition of locomotor activity in rats intraperitoneally; value ranges from […]-[…] mg/Kg; type: functional; conditions: ip
# Rattus norvegicus [11] = experiment: Tested for reversal of DOPA accumulation in rat mesolimbic after administration of compound at 10 mg/Kg dose for 60 min and GBL 750 mg/Kg ip; value ranges from 0.19-0.47; type: functional
# Rattus norvegicus [12] = experiment: Tested for reversal of DOPA accumulation in rat striatum after administration of compound at 10 mg/Kg dose for 60 min and GBL 750 mg/Kg ip; value ranges from 2.05-4.46; type: functional
# [13] = Tested for inhibition of conditioned avoidance in squirrel monkeys; value ranges from 0.4-0.7 mg/Kg; type: functional
# D(2) dopamine receptor [14] = biological target: D(2) dopamine receptor (Homo sapiens, UniProt P14416)
# D(2) dopamine receptor (Homo sapiens, UniProt P14416), sequence (P14416 whole entry): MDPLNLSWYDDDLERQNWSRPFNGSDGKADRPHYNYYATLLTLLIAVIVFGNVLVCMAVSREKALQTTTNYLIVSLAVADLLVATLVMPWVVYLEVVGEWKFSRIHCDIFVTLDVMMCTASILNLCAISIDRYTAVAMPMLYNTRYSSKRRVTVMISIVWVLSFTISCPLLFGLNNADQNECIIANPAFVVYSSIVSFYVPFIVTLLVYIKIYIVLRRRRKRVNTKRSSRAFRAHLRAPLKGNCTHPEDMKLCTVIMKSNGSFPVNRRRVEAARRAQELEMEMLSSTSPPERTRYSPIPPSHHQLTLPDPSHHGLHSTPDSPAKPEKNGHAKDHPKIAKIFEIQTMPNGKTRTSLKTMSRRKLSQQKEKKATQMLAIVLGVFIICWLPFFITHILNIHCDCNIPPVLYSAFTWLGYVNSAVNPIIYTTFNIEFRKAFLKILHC
# Description: Tested for binding affinity towards human D2L receptor using [3H]spiperone as radioligand
# D(3) dopamine receptor = D(3) dopamine receptor (Homo sapiens, UniProt P35462)
# D(3) dopamine receptor, sequence (P35462 whole entry): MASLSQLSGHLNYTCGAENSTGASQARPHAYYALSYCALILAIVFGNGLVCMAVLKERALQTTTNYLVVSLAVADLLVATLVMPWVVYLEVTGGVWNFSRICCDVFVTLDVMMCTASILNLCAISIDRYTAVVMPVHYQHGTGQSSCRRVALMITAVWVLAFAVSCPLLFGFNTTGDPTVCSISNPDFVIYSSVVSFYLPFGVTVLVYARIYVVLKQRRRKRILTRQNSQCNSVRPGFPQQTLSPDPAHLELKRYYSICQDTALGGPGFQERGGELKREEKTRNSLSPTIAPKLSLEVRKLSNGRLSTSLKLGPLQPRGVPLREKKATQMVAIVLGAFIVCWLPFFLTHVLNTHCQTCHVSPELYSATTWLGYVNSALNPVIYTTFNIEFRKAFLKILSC
# Description: Tested for binding affinity towards human D3 receptor using [3H]spiperone as radioligand
# D(2) dopamine receptor [15] = biological target: T1, D(2) dopamine receptor
# Description: Tested for binding affinity towards rat striatal D2 receptor using [3H]spiperone as radioligand
# Mus musculus [16] = organism: Mus musculus; experiment: animal or person; conditions: ip
# Rattus norvegicus [17] = experiment: Tested for the inhibition of locomotor activity in rats orally; value ranges from 0.21-0.3 mg/Kg; conditions: po
# [18] = Tested for inhibition of conditioned avoidance in squirrel monkeys; value ranges from 0.4-0.6 mg/Kg; conditions: Saimiri
# Mus musculus [19] = experiment: Tested for inhibition of mouse exploratory locomotory activity (LMA); value ranges from 9.2-16 mg/Kg; type: functional
# Rattus norvegicus [20] = experiment: Tested for inhibition of rat exploratory locomotory activity (LMA); value ranges from 12.5-24.7 mg/Kg; type: functional
# Mus musculus [21] = experiment: Tested for the inhibition of locomotor activity in mice intraperitoneally; value ranges from 0.14-0.9 mg/Kg; type: functional; conditions: ip
# Rattus norvegicus [22] = experiment: Compound was tested for the decrease of DA neuron firing rate in rats at 0.25 mg/Kg ip dose; type: functional; parameters: scale not given: the % may be the effect or the level left
# Rattus norvegicus [23] = experiment: Tested for reversal of DOPA accumulation in rat striatum after administration of compound at 10 mg/Kg dose for 60 min and GBL 750 mg/Kg ip; value ranges from 0.14-0.59; type: functional
# Rattus norvegicus [24] = organism: Rattus norvegicus; experiment: animal or person; conditions: ip
# [25] = test system: Saimiri sciureus (squirrel monkey); experiment: Tested for inhibition of conditioned avoidance in squirrel monkeys; stim indicates stimulation (increase in response rate) at 0.156 and 0.312 mgkg sc
# Mus musculus [26] = organism: Mus musculus; experiment: Tested for inhibition of mouse exploratory locomotory activity (LMA); type: functional
# Rattus norvegicus [27] = experiment: Tested for inhibition of rat exploratory locomotory activity (LMA); value ranges from 3.2-10.4 mg/Kg; type: functional
# Rattus norvegicus [28] = experiment: Tested for inhibition of rat exploratory locomotory activity (LMA); value ranges from […]-[…] mg/Kg; value ranges from […]-[…] mg/Kg; type: functional
# Mus musculus [29] = experiment: Tested for inhibition of mouse explanatory locomotory activity; value ranges from […]-[…] mg/Kg; type: functional
structure (smiles),measurement,setting,value
C1=C(c2ccccc2)CCN(CC2CCC=C(c3ccccc3)C2)C1 (configuration not stated),IC50,D(2) dopamine receptor [1],112 nM
same,ED50,Mus musculus [2],1.1 mg/kg
same,Effect,Rattus norvegicus [3],-86%
C1=C(c2ccccc2)CC(CN2CCN(c3ccccn3)CC2)CC1 (configuration not stated),IC50,D(2) dopamine receptor [1],141 nM
same,ED50,Mus musculus [4],0.8 mg/kg
same,Effect,Rattus norvegicus [3],-61%
C1=C(c2ccccc2)CC(CN2CCN(c3ccccc3)CC2)CC1 (configuration not stated),IC50,D(2) dopamine receptor [1],424 nM
same,Effect,Rattus norvegicus [3],-7.5%
Clc1ccc(C2=CCC[C@@H](CN3CC=C(c4ccccc4)CC3)C2)cc1,ED50,Rattus norvegicus [5],19.9 mg/kg
C1=C(c2ccccc2)CCN(C[C@@H]2CCC=C(c3ccccc3)C2)C1 [CI-1007],Ki,D(1A) dopamine receptor,> 10 µM
same,Ki,D(4) dopamine receptor,90.9 nM
same,IC50,D(2) dopamine receptor [1],53 nM
same,Ki,D(2) dopamine receptor [6],3.3 nM
same,ED50,Mus musculus [7],1.3 mg/kg
same,Activity,Rattus norvegicus [8],99
same,ED50,Rattus norvegicus [9],2.9 mg/kg
same,ED50,Rattus norvegicus [10],2.9 mg/kg
same,Effect,Rattus norvegicus [3],-66%
same,Effect,Rattus norvegicus [11],0.3%
same,Effect,Rattus norvegicus [12],3%
same,ED50,[13],0.6 mg/kg
same,Ki,D(2) dopamine receptor [14],25.5 nM
same,Ki,D(3) dopamine receptor,16.6 nM
same,Ki,D(2) dopamine receptor [15],53 nM
C1=C(c2ccccc2)CCCC1CN1CC=C(c2ccccc2)CC1 (configuration not stated),IC50,D(2) dopamine receptor [1],420 nM
same,Effect,Rattus norvegicus [3],-34%
O=C(CCCN1CCC(O)(c2ccc(Cl)cc2)CC1)c1ccc(F)cc1 [HALOPERIDOL],ED50,Mus musculus [16],0.3 mg/kg
same,ED50,Rattus norvegicus [17],0.25 mg/kg
same,ED50,[18],0.5 mg/kg
C1=C(c2ccccc2)CC(CN2CC=C(c3cccs3)CC2)CC1 (configuration not stated),IC50,D(2) dopamine receptor [1],170 nM
C1=C(c2ccccc2)CC(CN2CCN(c3ncccn3)CC2)CC1 (configuration not stated),IC50,D(2) dopamine receptor [1],354 nM
C1=C(c2ccccc2)CCN(CCC2CCC=C(c3ccccc3)C2)C1 (configuration not stated),Effect,Rattus norvegicus [3],-49%
C1=C(c2ccccc2)CCC(CN2CC=C(c3ccccc3)CC2)C1 (configuration not stated),IC50,D(2) dopamine receptor [1],1000 nM
same,ED50,Mus musculus [19],12.1 mg/kg
same,Effect,Rattus norvegicus [3],-32%
Fc1ccc(C2=CCC[C@@H](CN3CC=C(c4ccccc4)CC3)C2)cc1,IC50,D(2) dopamine receptor [1],76 nM
same,ED50,Rattus norvegicus [20],17.5 mg/kg
same,Effect,Rattus norvegicus [3],-74%
CN1CCc2cccc3c2[C@H]1Cc1ccc(O)c(O)c1-3 [APOMORPHINE],ED50,Mus musculus [21],0.36 mg/kg
same,Activity,Rattus norvegicus [22],100%
same,ED50,Rattus norvegicus [23],0.28 mg/kg
same,ED50,Rattus norvegicus [24],0.03 mg/kg
same,ED50,[25],inactive
C1=C(c2ccccc2)CCN(C2CCC=C(c3ccccc3)C2)C1 (configuration not stated),IC50,D(2) dopamine receptor [1],9210 nM
same,ED50,Mus musculus [26],~30 mg/kg
Cc1ccc(C2=CCC[C@@H](CN3CC=C(c4ccccc4)CC3)C2)cc1,IC50,D(2) dopamine receptor [1],328 nM
same,ED50,Rattus norvegicus [27],5.8 mg/kg
same,Effect,Rattus norvegicus [3],-42%
C1=C(c2ccccc2)CCN(CC2CCCC=C2c2ccccc2)C1 (configuration not stated),IC50,D(2) dopamine receptor [1],3940 nM
same,ED50,Mus musculus [26],> 30 mg/kg
C1=C(c2ccccc2)CCN(C[C@H]2CCC=C(c3ccccc3)C2)C1,IC50,D(2) dopamine receptor [1],113 nM
same,ED50,Rattus norvegicus [28],3.8 mg/kg
same,Effect,Rattus norvegicus [3],50%
COc1ccc(C2=CCC[C@@H](CN3CC=C(c4ccccc4)CC3)C2)cc1,IC50,D(2) dopamine receptor [1],100 nM
same,ED50,Mus musculus [29],5.6 mg/kg
same,Effect,Rattus norvegicus [3],-47%
FC(F)(F)c1ccc(C2=CCC[C@@H](CN3CC=C(c4ccccc4)CC3)C2)cc1,IC50,D(2) dopamine receptor [1],2550 nM
